# Source: patent US20100297020A1, “PHOSPHORYLATED AND PHOSPHONATED PYRONE ANALOGS FOR THERAPEUTIC TREATMENT” (Limerick Biopharma, Inc., priority 2008, published 2010)
# Columns and labels:
# [1] = tested on: cyclosporin treated Wistar rats; assay: Cyclosporine induced hyperglycemia in male Wistar rats; format: in vivo
# [2] = tested on: cyclosporin treated Wistar rats; assay: Islet histopathology and apoptosis in cyclosporine treated Wistar rats; format: in vivo; conditions: cyclosporine 10 mg/kg PO, alone (Group-2) or with compound 1 30 mg/kg IP (Group-3)
# [3] = tested on: tacrolimus treated Wistar rats; assay: Tacrolimus induced hyperglycemia in male Wistar rats; format: in vivo; conditions: for plasma glucose levels by day-14: tacrolimus 2 mg/kg PO daily, alone or with compound 1 at 30, 10 and 3 mg/kg IP
# male ZDF rats = assay: 4-week study in male ZDF rats (compound 1)
# [4] = tested on: BB19 cells, human BCECs (brain capillary endothelial cells); assay: Tacrolimus uptake assay; format: cell-based; conditions: Endothelial cell, 1 h, 0.1 μM test compound, 1 hour incubation, 3H-tacrolimus 34 nM, read-out: cell associated ^3H-tacrolimus uptake, % of control
# Method: (§1) BB19 cells, human BCECs (brain capillary endothelial cells) immortalized with the E6E7 genes of human papilloma virus, were kindly provided from Jacques G. Prudhomme, Department of Biology, University of California, Riverside, U.S.A. The cells were cultured as monolayer culture in Amniomax™-C100 basal medium (catalog number 17001-157) with Amniomax™-C100 supplement (catalog number 12556-049) (Invitrogen, Basel, CH).
# (§2) Cells were seeded onto culture surfaces precoated with 10 μg/cm^2 rat tail collagen type I (BD Bioscience, Allschwil, CH) at a density of approximately 50′000 cells/cm^2 and were cultured in an incubator at 37° C. with 5% CO2, 95% fresh air and saturated humidity. For uptake assays, cells were seeded on precoated 96-well plates. Assays were performed at confluency, after 6 days in culture.
# (§3) BB19 cells were seeded 50′000 cells/cm^2 on 96-well plates (Falcon) and incubated under condition described above for 6 days. Before starting the assay, cells were washed 2 times with pre-warmed Dulbecco's MEM with Glutamax-I (catalog number 61965) (Invitrogen AG, Basel, CH), supplemented with 1% non essential amino acids, 1% sodium pyruvate, 50 μg/ml gentamycin (Invitrogen AG) (DMEM). Cells were then incubated for 15 min at 37° C. and 120 rpm in DMEM with or without the specified concentrations of test compounds under investigation. After this pre-incubation, cells were incubated in DMEM containing [propyl-3H]-dihydro-FK506 (3H-tacrolimus, 1 μCi/ml, 34 nM) and with or without the specified concentrations of test compounds for 1 hour at 37° C. and 120 rpm. During this 1-hour incubation period, influx and efflux of the substrate, ^3H-tacrolimus, occur. After the 1-hour incubation period, assay was terminated by placing the assay plate on ice and washing the cells twice with ice-cold DMEM. Determination of cell associated ^3H-tacrolimus was performed by addition of Insta Gel and scintillation liquid to trypsinized cells followed by analysis on a scintillation counter (Packard TriCarb2000, Can berra Packard S.A.). The results are expressed as: % of control=100×[^3H-tacrolimus conc. with test compound]/[^3H-tacrolimus conc. with vehicle]
# [5] = tested on: BB19 cells, human BCECs (brain capillary endothelial cells); assay: Cyclosporin uptake assay; format: cell-based; conditions: 0.1 μM test compound; 1 hour incubation
# Method: as §1, §2, §3
# The cyclosporin uptake assay was performed similarly as described above for tacrolimus uptake assay except that ^3H-cyclosporin was used in place of ^3H-tacrolimus.
# [6] = tested on: rats treated with tacrolimus; assay: Renal pathology in rats co-administered with tacrolimus; format: in vivo; conditions: tacrolimus 0.5 mg/kg with vehicle or with Compound 2 at 11, 28 and 114 mg/kg, 25 days
# Method: Tissue is removed from the kidney of rats treated with tacrolimus (Prograf®) at 0.5 mg/kg and inert vehicle, and from rats treated with tacrolimus (Prograf®) at 0.5 mg/kg and quercetin-3′-O-methylphosphonate (Compound 2) at 11 mg/kg, 28 mg/kg, and at 114 mg/kg for 25 days. […] The tissue from rats treated with Compound 2 and tacrolimus show no vacuoles.
# [7] = compound 1 30 mg/kg, rosiglitazone 6 mg/kg, compared to vehicle
smiles,measurement,setting,value
"O=c1c(OCP(=O)(O)O)c(-c2ccc(O)c(O)c2)oc2cc(O)cc(O)c12 [Compound 1, Quercetin-3-O-methylphosphonic acid]",plasma glucose level during OGTT,"[1]; compound 1 30 mg/kg IP with cyclosporine 10 mg/kg PO, day-15",a level similar to that of vehicle treated animals
same,plasma glucose levels by day-14,"[1]; cyclosporine 10 mg/kg PO daily, alone or with compound 1 at 30, 10 and 3 mg/kg IP",reduced cyclosporine induced hyperglycemia
same,plasma glucose levels by day-14,[1]; cyclosporine 10 mg/kg PO with compound 1 at 30 mg/kg IP,completely prevented cyclosporine induced hyperglycemia
same,number of apoptotic islet cells,[2],reduced the number of apoptotic cells to that of vehicle treated animals
same,islet cell hyperplasia and degeneration/necrosis scores,[2]; score 0-4,normalized the scores to that of vehicle treated animals
same,plasma insulin level during OGTT,"[3]; 0, 15 and 30 minutes post glucose, compound 1 at all three dose levels with tacrolimus 2 mg/kg",higher than tacrolimus treated (group-2) or vehicle treated (Group-1) animals
same,plasma glucose level during OGTT,"[3]; compound 1 30 mg/kg and 10 mg/kg IP with tacrolimus 2 mg/kg PO, day-15",a level similar to that of vehicle treated animals
same,plasma glucose levels by day-14,[3],reduced tacrolimus induced hyperglycemia
same,plasma glucose levels,"male ZDF rats; 4 weeks daily i.p., compound 1 30 and 10 mg/kg",maintains a lower plasma glucose level than vehicle treatment
same,glycated hemoglobin levels (% HbA1c) at termination,male ZDF rats; [7],significantly lower glycated hemoglobin levels
same,pancreatic insulin levels,male ZDF rats; [7],significantly higher than that of the vehicle treated animals
same,"plasma insulin levels, fed and fasting",male ZDF rats; day-28 and day-29,significantly higher plasma insulin levels under both fed and fasting conditions
same,liver triglyceride,male ZDF rats; four weeks of daily treatment,did not increase liver triglyceride
same,plasma glucose during OGTT,"male ZDF rats; oral glucose 2 g/kg, day-29 after 12-hr fast, 15, 30, 60, 90 minutes",maintain lower plasma glucose level during OGTT
"O=c1c(O)c(-c2ccccc2)oc2cc(OCP(=O)(O)O)cc(O)c12 [Compound 10, (3,5-Dihydroxy-4-oxo-2-phenyl-4H-chromen-7-yloxy)methylphosphonic acid]",activity at 0.1 µM,[4],51%
"O=c1c(O)c(-c2ccc(OCP(=O)(O)O)cc2)oc2cc(O)cc(O)c12 [Compound 11, (4-(3,5,7-Trihydroxy-4-oxo-4H-chromen-2-yl)phenoxy)methylphosphonic acid]",activity at 0.1 µM,[4],49%
same,"cell associated ^3H-cyclosporin uptake, % of control",[5],78 % of control
"O=c1c(O)c(-c2ccccc2)oc2cc(O)cc(OCP(=O)(O)O)c12 [Compound 16, (3,7-Dihydroxy-4-oxo-2-phenyl-4H-chromen-5-yloxy)methylphosphonic acid]",activity at 0.1 µM,[4],54%
"O=c1c(O)c(-c2ccc(O)c(OCP(=O)(O)O)c2)oc2ccccc12 [Compound 18, (2-Hydroxy-5-(3-hydroxy-4-oxo-4H-chromen-2-yl)phenoxy)methylphosphonic acid]",activity at 0.1 µM,[4],66%
same,"cell associated ^3H-cyclosporin uptake, % of control",[5],77 % of control
"O=c1c(OCP(=O)(O)O)c(-c2ccc(O)c(O)c2)oc2ccccc12 [Compound 20, (2-(3,4-Dihydroxyphenyl)-4-oxo-4H-chromen-3-yloxy)methylphosphonic acid]",activity at 0.1 µM,[4],62%
same,"cell associated ^3H-cyclosporin uptake, % of control",[5],77 % of control
"C=CC[C@@H]1/C=C(\C)C[C@H](C)C[C@H](OC)[C@H]2O[C@@](O)(C(=O)C(=O)N3CCCC[C@H]3C(=O)O[C@H](/C(C)=C/[C@@H]3CC[C@@H](O)[C@H](OC)C3)[C@H](C)[C@@H](O)CC1=O)[C@H](C)C[C@@H]2OC [Tacrolimus, tacrolimus, reference compound]",vacuolation of kidney tissue,[6],significant vacuolation
same,plasma glucose levels by day-14,[3],induced hyperglycemia is clearly demonstrated
